Reference: patent publication US9611267B2, “Substituted tricyclic compounds as FGFR inhibitors” (Incyte Corporation, priority 2012, dated 2017)
Where two headings read alike, the source gives them in different places.

What was measured:
Type in all cases: biochemical
FGFR1 = FGFR1 (Homo sapiens (Human), UniProt P11362); assay: FGFR enzymatic assay (FRET peptide phosphorylation), FGFR1
Summary of the method: (§1)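 IC50 values were obtained from variable-slope sigmoidal dose-response fitting of a FRET read-out of peptide phosphorylation. The buffer, described for FGFR3, was 50 mM HEPES pH 7.5 with MgCl2, EGTA, Tween-20 and DTT.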

FGFR2 = FGFR2 (Homo sapiens (Human), UniProt P21802); assay: FGFR enzymatic assay (FRET peptide phosphorylation), FGFR2
FGFR2, sequence (P21802 22-821): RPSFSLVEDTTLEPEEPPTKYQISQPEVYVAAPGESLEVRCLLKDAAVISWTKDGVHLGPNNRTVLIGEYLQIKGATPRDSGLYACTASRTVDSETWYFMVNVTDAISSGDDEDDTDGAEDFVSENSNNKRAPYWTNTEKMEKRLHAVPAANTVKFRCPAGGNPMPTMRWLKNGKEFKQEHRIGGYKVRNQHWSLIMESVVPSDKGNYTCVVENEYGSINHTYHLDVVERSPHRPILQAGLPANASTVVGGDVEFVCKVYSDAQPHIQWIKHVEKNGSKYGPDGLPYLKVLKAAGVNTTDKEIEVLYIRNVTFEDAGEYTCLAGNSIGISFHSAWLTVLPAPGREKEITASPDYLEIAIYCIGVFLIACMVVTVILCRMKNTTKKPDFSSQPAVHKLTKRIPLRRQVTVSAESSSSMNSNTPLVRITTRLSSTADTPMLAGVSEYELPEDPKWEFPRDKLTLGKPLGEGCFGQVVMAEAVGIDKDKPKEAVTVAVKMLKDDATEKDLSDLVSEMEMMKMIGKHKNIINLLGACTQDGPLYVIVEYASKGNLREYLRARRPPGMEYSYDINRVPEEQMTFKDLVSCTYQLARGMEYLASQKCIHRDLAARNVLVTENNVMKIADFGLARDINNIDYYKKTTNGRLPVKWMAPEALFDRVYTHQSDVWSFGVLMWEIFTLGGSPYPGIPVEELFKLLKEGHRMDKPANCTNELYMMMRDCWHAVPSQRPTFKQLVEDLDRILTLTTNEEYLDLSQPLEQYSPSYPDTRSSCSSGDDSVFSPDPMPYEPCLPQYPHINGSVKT
Summary of the method: as §1

FGFR3 = FGFR3 (Homo sapiens (Human), UniProt P22607); assay: FGFR enzymatic assay (FRET peptide phosphorylation), FGFR3
FGFR3, sequence (P22607 23-806): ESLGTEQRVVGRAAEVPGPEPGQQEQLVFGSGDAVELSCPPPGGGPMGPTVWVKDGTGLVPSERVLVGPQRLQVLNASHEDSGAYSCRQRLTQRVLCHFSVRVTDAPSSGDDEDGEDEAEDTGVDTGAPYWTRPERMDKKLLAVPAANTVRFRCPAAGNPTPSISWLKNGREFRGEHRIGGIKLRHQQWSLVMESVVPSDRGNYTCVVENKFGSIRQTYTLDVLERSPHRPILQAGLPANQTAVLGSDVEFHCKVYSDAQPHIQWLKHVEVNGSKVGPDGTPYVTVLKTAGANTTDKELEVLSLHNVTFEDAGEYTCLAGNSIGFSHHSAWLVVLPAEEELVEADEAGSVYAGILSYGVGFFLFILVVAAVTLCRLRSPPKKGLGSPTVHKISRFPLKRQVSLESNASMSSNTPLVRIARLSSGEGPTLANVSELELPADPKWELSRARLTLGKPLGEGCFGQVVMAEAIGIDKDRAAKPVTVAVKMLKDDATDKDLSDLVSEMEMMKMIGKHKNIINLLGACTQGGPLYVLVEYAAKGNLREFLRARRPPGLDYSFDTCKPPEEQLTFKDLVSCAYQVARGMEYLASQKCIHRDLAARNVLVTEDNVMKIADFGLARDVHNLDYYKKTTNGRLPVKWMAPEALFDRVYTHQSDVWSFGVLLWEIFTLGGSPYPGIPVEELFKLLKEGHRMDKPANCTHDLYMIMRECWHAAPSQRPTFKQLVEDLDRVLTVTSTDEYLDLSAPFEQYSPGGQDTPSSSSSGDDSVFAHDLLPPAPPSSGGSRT
Summary of the method: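 After 5-10 min pre-incubation of FGFR3 with serially diluted compound in pH 7.5 HEPES/MgCl2/EGTA/DTT buffer, the reaction proceeded 1 hr at 25° C. Phosphorylated peptide was detected by FRET, and IC50 was fitted with a variable-slope sigmoid.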

[1] = FGFR1 enzyme 0.02 nM, ATP 210 μM
[2] = FGFR2 enzyme 0.01 nM, ATP 100 μM
[3] = FGFR3 enzyme (Millipore), ATP 140 μM

Measured: IC50

FGFR1, sequence (P11362 22-822): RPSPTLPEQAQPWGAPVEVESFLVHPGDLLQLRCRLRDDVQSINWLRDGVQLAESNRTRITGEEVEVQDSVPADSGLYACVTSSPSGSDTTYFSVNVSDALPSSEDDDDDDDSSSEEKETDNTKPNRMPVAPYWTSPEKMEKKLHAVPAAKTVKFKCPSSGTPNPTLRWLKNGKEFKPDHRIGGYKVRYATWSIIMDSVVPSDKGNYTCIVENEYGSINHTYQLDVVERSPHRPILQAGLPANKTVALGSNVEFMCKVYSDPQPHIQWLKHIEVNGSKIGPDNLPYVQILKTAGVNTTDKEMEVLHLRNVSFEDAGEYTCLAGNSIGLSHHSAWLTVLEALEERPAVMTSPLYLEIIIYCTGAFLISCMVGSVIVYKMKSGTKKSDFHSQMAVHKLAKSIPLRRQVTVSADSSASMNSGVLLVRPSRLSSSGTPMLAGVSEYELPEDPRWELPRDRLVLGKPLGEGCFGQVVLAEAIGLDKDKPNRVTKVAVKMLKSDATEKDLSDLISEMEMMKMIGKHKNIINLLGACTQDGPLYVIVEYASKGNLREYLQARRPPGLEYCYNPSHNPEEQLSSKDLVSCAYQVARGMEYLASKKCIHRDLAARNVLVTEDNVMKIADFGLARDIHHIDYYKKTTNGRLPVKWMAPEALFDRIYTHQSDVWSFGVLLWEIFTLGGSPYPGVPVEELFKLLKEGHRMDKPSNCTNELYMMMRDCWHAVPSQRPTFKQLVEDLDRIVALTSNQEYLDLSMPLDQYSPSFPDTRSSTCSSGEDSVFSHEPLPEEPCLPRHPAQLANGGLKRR

CCN1CCN(Cc2cc3c4c(cnc3[nH]2)CN(c2c(F)c(OC)cc(OC)c2F)C(=O)N4c2ccccc2F)CC1 [Example 181, 3-(2,6-difluoro-3,5-dimethoxyphenyl)-8-[(4-ethylpiperazin-1-yl)methyl]-1-(2-fluorophenyl)-1,3,4,7-tetrahydro-2H-pyrrolo[3′,2′:5,6]pyrido[4,3-d]pyrimidin-2-one]
< 100 nM: FGFR1; [1] | FGFR2; [2] | FGFR3; [3]

COc1cc(OC)c(F)c(N2Cc3cnc4[nH]c(CN5CC[C@@H](N(C)C)C5)cc4c3C(C)(C)C2=O)c1F [Example 157, 7-(2,6-difluoro-3,5-dimethoxyphenyl)-2-{[(3R)-3-(dimethylamino)pyrrolidin-1-yl]methyl}-9,9-dimethyl-3,6,7,9-tetrahydro-8H-pyrrolo[2,3-c]-2,7-naphthyridin-8-one]
< 100 nM: FGFR1; [1] | FGFR2; [2] | FGFR3; [3]

COc1cc(OC)c(F)c(N2Cc3cnc4[nH]c(CCN5CCOCC5)cc4c3N(c3cccc(F)c3)C2=O)c1F [Example 227, 3-(2,6-difluoro-3,5-dimethoxyphenyl)-1-(3-fluorophenyl)-8-(2-morpholin-4-ylethyl)-1,3,4,7-tetrahydro-2H-pyrrolo[3′,2′:5,6]pyrido[4,3-d]pyrimidin-2-one]
< 100 nM: FGFR1; [1] | FGFR2; [2] | FGFR3; [3]

COc1cc(OC)c(F)c(N2Cc3cnc4[nH]nc(CCN5CCOCC5)c4c3N(C)C2=O)c1F [Example 100, 3-(2,6-difluoro-3,5-dimethoxyphenyl)-1-methyl-9-(2-morpholin-4-ylethyl)-1,3,4,7-tetrahydro-2H-pyrazolo[4′,3′:5,6]pyrido[4,3-d]pyrimidin-2-one]
< 100 nM: FGFR1; [1] | FGFR2; [2] | FGFR3; [3]

COc1cc(OC)c(F)c(N2Cc3cnc4[nH]ncc4c3N([C@H]3CCCOC3)C2=O)c1F [Example 88, 3-(2,6-difluoro-3,5-dimethoxyphenyl)-1-[(3S)-tetrahydro-2H-pyran-3-yl]-1,3,4,7-tetrahydro-2H-pyrazolo[4′,3′:5,6]pyrido[4,3-d]pyrimidin-2-one]
< 100 nM: FGFR1; [1] | FGFR2; [2] | FGFR3; [3]

COc1cc(OC)c(F)c(N2Cc3cnc4[nH]ccc4c3C3(CCCC3)C2=O)c1F [Example 149, 7′-(2,6-difluoro-3,5-dimethoxyphenyl)-6′,7′-dihydrospiro[cyclopentane-1,9′-pyrrolo[2,3-c][2,7]naphthyridin]-8′(3′H)-one]
< 100 nM: FGFR1; [1] | FGFR2; [2] | FGFR3; [3]

CCN1C(=O)N(c2c(F)c(OC)cc(OC)c2F)Cc2cnc3[nH]c(CCN4CC(F)C4)cc3c21 [Example 231, 3-(2,6-difluoro-3,5-dimethoxyphenyl)-1-ethyl-8-[2-(3-fluoroazetidin-1-yl)ethyl]-1,3,4,7-tetrahydro-2H-pyrrolo[3′,2′:5,6]pyrido[4,3-d]pyrimidin-2-one]
< 100 nM: FGFR1; [1] | FGFR2; [2] | FGFR3; [3]

COc1cc(OC)c(F)c(N2Cc3cnc4c(c3N(c3ccc(Cl)cc3)C2=O)CC(=O)N4)c1F [Example 80, 1-(4-chlorophenyl)-3-(2,6-difluoro-3,5-dimethoxyphenyl)-3,4,7,9-tetrahydro-1H-pyrrolo[3′,2′:5,6]pyrido[4,3-d]pyrimidine-2,8-dione]
< 100 nM: FGFR1; [1] | FGFR2; [2] | FGFR3; [3]

COc1cc(OC)c(F)c(N2Cc3cnc4[nH]ncc4c3N(c3cccc(C(=O)NC(C)C)c3F)C2=O)c1F [Example 199, 3-[3-(2,6-difluoro-3,5-dimethoxyphenyl)-2-oxo-2,3,4,7-tetrahydro-1H-pyrazolo[4′,3′:5,6]pyrido[4,3-d]pyrimidin-1-yl]-2-fluoro-N-isopropylbenzamide]
< 100 nM: FGFR1; [1] | FGFR2; [2] | FGFR3; [3]

COc1cc(OC)c(F)c(N2Cc3cnc4[nH]c(CN5CCC(O)CC5)cc4c3N(C)C2=O)c1F [Example 111, 3-(2,6-difluoro-3,5-dimethoxyphenyl)-8-[(4-hydroxypiperidin-1-yl)methyl]-1-methyl-1,3,4,7-tetrahydro-2H-pyrrolo[3′,2′:5,6]pyrido[4,3-d]pyrimidin-2-one]
< 100 nM: FGFR1; [1] | FGFR2; [2] | FGFR3; [3]

COc1cc(OC)c(F)c(N2Cc3cnc4[nH]c(CCN5CCOCC5)cc4c3N(C3CCC3)C2=O)c1F [Example 183, 1-cyclobutyl-3-(2,6-difluoro-3,5-dimethoxyphenyl)-8-(2-morpholin-4-ylethyl)-1,3,4,7-tetrahydro-2H-pyrrolo[3′,2′:5,6]pyrido[4,3-d]pyrimidin-2-one]
< 100 nM: FGFR1; [1] | FGFR2; [2] | FGFR3; [3]

COc1cc(OC)c(F)c(N2Cc3cnc4[nH]nc(C)c4c3N(C)C2=O)c1F [Example 52, 3-(2,6-Difluoro-3,5-dimethoxyphenyl)-1,9-dimethyl-1,3,4,7-tetrahydro-2H-pyrazolo[4′,3′:5,6]pyrido[4,3-d]pyrimidin-2-one]
< 100 nM: FGFR1; [1] | FGFR2; [2] | FGFR3; [3]

COc1cc(OC)c(F)c(N2Cc3cnc4[nH]c(CN5CCN(C)CC5)cc4c3N(c3cnn(C)c3)C2=O)c1F [Example 204, 3-(2,6-difluoro-3,5-dimethoxyphenyl)-8-[(4-methylpiperazin-1-yl)methyl]-1-(1-methyl-1H-pyrazol-4-yl)-1,3,4,7-tetrahydro-2H-pyrrolo[3′,2′:5,6]pyrido[4,3-d]pyrimidin-2-one]
< 100 nM: FGFR1; [1] | FGFR2; [2] | FGFR3; [3]

CCn1cc(N2C(=O)N(c3c(F)c(OC)cc(OC)c3F)Cc3cnc4[nH]ncc4c32)cn1 [Example 172, 3-(2,6-difluoro-3,5-dimethoxyphenyl)-1-(1-ethyl-1H-pyrazol-4-yl)-1,3,4,7-tetrahydro-2H-pyrazolo[4′,3′:5,6]pyrido[4,3-d]pyrimidin-2-one]
< 100 nM: FGFR1; [1] | FGFR2; [2] | FGFR3; [3]

COc1cc(OC)c(F)c(N2Cc3cnc4[nH]ccc4c3C3(CC3)C2=O)c1F [Example 66, 7′-(2,6-difluoro-3,5-dimethoxyphenyl)-6′,7′-dihydrospiro[cyclopropane-1,9′-pyrrolo[2,3-c][2,7]naphthyridin]-8′(3′H)-one]
< 100 nM: FGFR1; [1] | FGFR2; [2] | FGFR3; [3]

COc1cc(OC)c(F)c(N2Cc3cnc4[nH]nc(CC#N)c4c3N(C)C2=O)c1F [Example 54, [3-(2,6-Difluoro-3,5-dimethoxyphenyl)-1-methyl-2-oxo-2,3,4,7-tetrahydro-1H-pyrazolo[4′,3′:5,6]pyrido[4,3-d]pyrimidin-9-yl]acetonitrile]
< 100 nM: FGFR1; [1] | FGFR2; [2] | FGFR3; [3]

COc1cc(OC)c(F)c(N2Cc3cnc4[nH]ncc4c3N(Cc3ccon3)C2=O)c1F [Example 162, 3-(2,6-Difluoro-3,5-dimethoxyphenyl)-1-(isoxazol-3-ylmethyl)-1,3,4,7-tetrahydro-2H-pyrazolo[4′,3′:5,6]pyrido[4,3-d]pyrimidin-2-one]
< 100 nM: FGFR1; [1] | FGFR2; [2] | FGFR3; [3]

COc1cc(OC)c(F)c(N2Cc3cnc4[nH]nc(-c5cnn(C)c5)c4c3N(C)C2=O)c1F [Example 215, 3-(2,6-difluoro-3,5-dimethoxyphenyl)-1-methyl-9-(1-methyl-1H-pyrazol-4-yl)-1,3,4,7-tetrahydro-2H-pyrazolo[4′,3′:5,6]pyrido[4,3-d]pyrimidin-2-one]
< 100 nM: FGFR1; [1] | FGFR2; [2] | FGFR3; [3]

COc1cc(OC)c(F)c(N2Cc3cnc4[nH]c(C(=O)N5CCCC(O)C5)cc4c3N(C)C2=O)c1 (stereo not drawn) [Example 31, 3-(2-Fluoro-3,5-dimethoxyphenyl)-8-[(3-hydroxypiperidin-1-yl)carbonyl]-1-methyl-1,3,4,7-tetrahydro-2H-pyrrolo[3′,2′:5,6]pyrido[4,3-d]pyrimidin-2-one]
< 100 nM: FGFR1; [1] | FGFR2; [2] | FGFR3; [3]

CCN1C(=O)N(c2c(F)c(OC)cc(OC)c2F)Cc2cnc3[nH]ncc3c21 [Example 57, 3-(2,6-Difluoro-3,5-dimethoxyphenyl)-1-ethyl-1,3,4,7-tetrahydro-2H-pyrazolo[4′,3′:5,6]pyrido[4,3-d]pyrimidin-2-one]
< 100 nM: FGFR1; [1] | FGFR2; [2] | FGFR3; [3]

COc1cc(OC)c(Cl)c(N2Cc3cnc4[nH]ncc4c3N(c3cnn(C)c3)C2=O)c1F [Example 145, 3-(2-chloro-6-fluoro-3,5-dimethoxyphenyl)-1-(1-methyl-1H-pyrazol-4-yl)-1,3,4,7-tetrahydro-2H-pyrazolo[4′,3′:5,6]pyrido[4,3-d]pyrimidin-2-one]
< 100 nM: FGFR1; [1] | FGFR2; [2] | FGFR3; [3]

COc1cc(OC)c(F)c(N2Cc3cnc4[nH]ccc4c3C3(CCN(C)CC3)C2=O)c1F [Example 151, 7′-(2,6-difluoro-3,5-dimethoxyphenyl)-1-methyl-6′,7′-dihydrospiro[piperidine-4,9′-pyrrolo[2,3-c][2,7]naphthyridin]-8′(3′H)-one]
< 100 nM: FGFR1 | FGFR2 | FGFR3

CNC(=O)c1cc2c3c(cnc2[nH]1)CN(c1cc(OC)cc(OC)c1Cl)C(=O)N3C [Example 23, 3-(2-Chloro-3,5-dimethoxyphenyl)-N,1-dimethyl-2-oxo-2,3,4,7-tetrahydro-1H-pyrrolo[3′,2′:5,6]pyrido[4,3-d]pyrimidine-8-carboxamide]
< 100 nM: FGFR1; [1] | FGFR2; [2] | FGFR3; [3]

COc1cc(OC)c(F)c(N2Cc3cnc4[nH]ccc4c3C3(CCC3)C2=O)c1F [Example 148, 7′-(2,6-difluoro-3,5-dimethoxyphenyl)-6′,7′-dihydrospiro[cyclobutane-1,9′-pyrrolo[2,3-c][2,7]naphthyridin]-8′(3′H)-one]
< 100 nM: FGFR1; [1] | FGFR2; [2] | FGFR3; [3]
